Assay: xn = mol fraction of the nth substance listed
Conditions: 328.15 K, Liquid, Vibrating tube method

CCCCCCCC [octane] + c1ccccc1
mass density [kg/m3]
Conditions	x1 = 0.1097	x1 = 0.2036	x1 = 0.2984	x1 = 0.4069	x1 = 0.5027	x1 = 0.5904	x1 = 0.6989	x1 = 0.7964	x1 = 0.904	x1 = 1
100 kPa	807.9	784.5	764.1	744.3	729.2	717	704	693.3	683	674.5
2130 kPa	810	786.7	766.2	746.5	731.4	719.1	706.1	695.5	685.1	676.6
4150 kPa	812.1	788.7	768.3	748.6	733.5	721.2	708.2	697.6	687.2	678.7
6180 kPa	814.1	790.8	770.4	750.7	735.6	723.3	710.3	699.7	689.2	680.7
8210 kPa	816.1	792.8	772.4	752.7	737.6	725.3	712.3	701.7	691.2	682.6
10230 kPa	818	794.7	774.4	754.7	739.6	727.3	714.3	703.7	693.2	684.6
11250 kPa	818.9	795.7	775.3	755.6	740.6	728.3	715.2	704.6	694.1	685.5
12260 kPa	819.9	796.6	776.3	756.6	741.5	729.2	716.2	705.6	695	686.4
14290 kPa	821.7	798.5	778.2	758.5	743.4	731.1	718.1	707.4	696.9	688.3
16310 kPa	823.6	800.4	780.1	760.4	745.3	733	719.9	709.3	698.7	690.1
18340 kPa	825.3	802.1	781.9	762.2	747.1	734.8	721.7	711.2	700.5	691.8
20370 kPa	827.1	803.9	783.6	763.9	748.9	736.6	723.4	713	702.2	693.6
22390 kPa	828.8	805.7	785.4	765.7	750.6	738.3	725.1	714.5	703.9	695.2
24420 kPa	830.5	807.4	787.1	767.4	752.3	740	726.8	716.2	705.6	696.9
26450 kPa	832.2	809.1	788.8	769.1	754	741.6	728.5	717.8	707.2	698.5
28470 kPa	833.8	810.7	790.4	770.7	755.6	743.2	730.1	719.4	708.8	700
29490 kPa	834.6	811.5	791.2	771.5	756.4	744	730.9	720.1	709.6	700.8
30500 kPa	835.4	812.3	792	772.3	757.2	744.8	731.7	720.9	710.3	701.6
32530 kPa	837	813.9	793.6	773.9	758.8	746.4	733.2	722.5	711.9	703
34550 kPa	838.5	815.5	795.2	775.4	760.3	747.9	734.7	724	713.4	704.5
36580 kPa	840	817	796.7	777	761.8	749.4	736.2	725.5	714.8	706
38600 kPa	841.5	818.5	798.2	778.4	763.3	750.9	737.7	726.9	716.2	707.4
39620 kPa	842.3	819.1	798.9	779.2	764	751.6	738.4	727.6	716.9	708.1
